In patent US20260070905A1, “Derivatives of Imidazo[1,2-A]Pyridine with Anti-Inflammatory Activity” (Universitat de Veléncia, priority 2023, published 2026):
Entries after “also recorded” stand apart in the source; their conditions may differ.

Legend:
[1] = molecular target: T1, recombinant Alk5 kinase (TGFβRI) (Homo sapiens, UniProt P36897); assay: In vitro Alk5 kinase inhibition (Kinase-Glo luminescent kinase assay); type: biochemical; details: for % kinase activity reduction: values refer to a 100% reduction in activity of the inhibition control GW788388 Hydrate, concentrations of 5 and 10 μM evaluated, ATP 100 μM, 2 h; for Alk5 kinase inhibition: in vitro kinase assay (FIG. 1)
T1 construct: purchased Abcam ab105908
T1 sequence (P36897 34-503): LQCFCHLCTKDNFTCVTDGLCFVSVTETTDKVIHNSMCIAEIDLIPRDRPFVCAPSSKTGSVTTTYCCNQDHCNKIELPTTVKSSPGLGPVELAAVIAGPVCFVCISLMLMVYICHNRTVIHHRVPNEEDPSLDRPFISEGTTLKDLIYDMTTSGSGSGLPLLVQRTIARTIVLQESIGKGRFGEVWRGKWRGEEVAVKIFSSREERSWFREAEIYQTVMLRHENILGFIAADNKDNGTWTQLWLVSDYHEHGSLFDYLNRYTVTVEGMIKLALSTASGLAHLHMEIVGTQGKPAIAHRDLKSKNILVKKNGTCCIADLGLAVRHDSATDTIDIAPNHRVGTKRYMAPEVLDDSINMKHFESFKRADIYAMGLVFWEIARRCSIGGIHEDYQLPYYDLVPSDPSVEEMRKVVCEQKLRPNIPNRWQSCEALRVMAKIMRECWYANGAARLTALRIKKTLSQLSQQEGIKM
Method: For this purpose, recombinant Alk5 (Abcam, ref ab105908) was used, and kinase activity was determined using the commercial Kinase-Glo® Luminiscent kinase assay platform (Promega, ref. TB372).
For this purpose, commercially available recombinant Alk5 protein (Abcam, ref ab105908) was used, as well as the commercial Kinase-Glo® Luminiscent kinase assay platform (Promega, ref TB372), which determines the adenosine triphosphate (ATP) not consumed in the phosphorylation reaction by its conjugation to luciferin in a reaction catalyzed by the luciferase enzyme in the presence of Mg^2+. The luminescence observed is inversely proportional to kinase activity.
From this stock solution, dilutions were made in kinase buffer (Tris-HCl pH 7.5 40 mM; MgCl2 20 mM; bovine serum albumin (BSA) 0.1 mg/mL) of 10 μM and concentrations of 5 and 10 μM were evaluated.
Incubation was carried out for 2 hours at room temperature with stirring and in darkness, following the instructions for the commercial system.
After this time, 50 μL of commercial substrate (diluted 1:8) was added, left to stir for 10 minutes at room temperature, and the luminescence was read using a Luminoskan Ascent instrument (Thermo Scientific, Waltham, USA).
All reactions were performed in duplicate.

[2] = tested on: Caco-2 cells; assay: Viability / MTT cytotoxicity assay on Caco-2 intestinal epithelial cells; type: cell-based; details: Caco-2 epithelial cells, all concentrations used (1, 5 and 10 μM), 24 h (FIG. 3A)
Method: To quantify the percentage of cells that remained viable in each of the experiments, THP-1-XBlue™-CD14 macrophages (InvivoGen, 8 to 13 passages) were evaluated, derived from human THP-1 monocytes, which stably express the gene for the alkaline phosphatase enzyme inducible by the NF-kB and AP-1 promoters. Human intestinal epithelial Caco-2 cells (ATCC®, HTB-37TM, 10 to 12 passages) were also evaluated. To do this, Trypan blue (Gibco) was used as an exclusion stain. This dye penetrates cells with damaged membranes (a sign of cell death) and stains their cytoplasm dark blue. To do this, the cell suspensions tested were centrifuged at 500×g (5 min at 24° C.), the cell sediments were resuspended in 0.1 mL of PBS, and then 10 μL were mixed with 10 μL of trypan blue (0.4%) filtered through 0.22 μm. The percentage of live cells was determined in 10 μL of the above mixture using a chamber and a Countess™ cell counter (Invitrogen).
In this second cytotoxicity assessment on THP-1-XBlue-CD14 and Caco-2, the technique previously described was used with the MTT dye (3-(4,5-dimethylthiazol-2-yl)-2,5-diphenyltetrazolium bromide) (Biotium).
To do this, both types of cells were seeded in 96-well plates under conditions identical to those used in the anti-inflammation assays. The cells were then washed with PBS and treated with different compounds: 1) PBS (10 μL) (positive growth control, vehicle); 2) 20% DMSO (negative control, as high doses of this compound are cytotoxic); 3) different concentrations of the compounds PS1801 and PS1906 (1, 5, and 10 μM). The plates were incubated for 24 hours at 37° C., 5% CO2, and then 10 μL of MTT was added to each well and the plate was incubated for 4 hours at 37° C., 5% CO2. The formazan crystals formed were dissolved in 180 μL of DMSO, and the plate was incubated for 20 minutes with shaking at room temperature. The absorbance was measured in each well at 595 nm (problem) and 655 nm (background), following the manufacturer's instructions, using an iMark™ Microplate Absorbance Reader (Bio-Rad). The samples were analyzed in triplicate.

[3] = tested on: acute lung injury (ALI) induced by LPS; assay: Murine model of acute lung injury (ALI) induced by intratracheal LPS; type: in vivo, mouse (C57BL/6J-OlaHsd); details: mice
Source text: In order to evaluate the potential anti-inflammatory effect of the PS1906 molecule in an in vivo model, we selected the ALI model induced by tracheal instillation of lipopolysaccharide (LPS), which has been widely described in the literature and previously performed by members of the research group (Clemente-Moragón et al., 2020). This murine model is a model of acute lung inflammation or damage associated with a long-term fibrotic period, so it can be used to study both inflammatory lung diseases and pulmonary fibrotic processes.
Mice of the C57BL/6J-OlaHsd strain were chosen for this model. Adult mice were kept in pathogen-free conditions in a temperature-controlled room with a 12-hour light-dark cycle. Food and water were available ad libitum. The mice were anesthetized intraperitoneally with an injection of an anesthetic cocktail containing atropine sulfate (1 mg/kg; B. Braun, 1 mg/mL), xylazine hydrochloride (20 mg/kg; Rompun® Bayer, 20 mg/mL), and ketamine (100 mg/kg; Anesketin Dechra, 100 mg/mL). All experimental and other scientific procedures involving animals complied with EU Directive 2010/63EU and Recommendation 2007/526/EC, enacted into Spanish law under Real Decreto 53/2013. Animal protocols were approved by local ethics committees and the Animal Protection Area of the Autonomous Community of Madrid.
In vitro studies were taken into account when selecting the doses to be administered, with a concentration of 10 μM being considered the maximum effective (non-toxic) concentration. Assuming an approximate blood volume of 2 mL for a mouse weighing about 30 g, and taking into account a loss due to distribution, metabolism, or secretion of 50% of the products, we calculated dose 1 (D1) and selected dose 2 (D2) as twice the first. Thus, taking into account the respective molecular weights, the corresponding doses for the PS1906 product were 156 μg/kg (D1) and 312 μg/kg (D2). Physiological saline was used as a diluent for the preparation of the different doses. All doses were prepared to administer the same volume in the mouse. The doses were administered intravenously with the animal properly anesthetized moments before the induction of pulmonary inflammation. […]
After 24 h, the animals were sacrificed and the lungs were washed with 1.5 mL of cold PBS through a tracheal catheter (Introcan Safety 22G, Braun), and a total of 1 mL of bronchoalveolar lavage fluid was extracted from each mouse for the detection of neutrophils and lymphocytes by flow cytometry. […] The data were analyzed with FlowJo software (Ashland). […]

[4] = tested on: THP-1-XBlue™-CD14 macrophages; assay: MTT cytotoxicity assay on THP-1-XBlue-CD14 macrophages; type: cell-based; details: THP-1 macrophages, all concentrations used (1, 5 and 10 μM), 24 h (FIG. 2, FIG. 3B)
Source text: To quantify the percentage of cells that remained viable in each of the experiments, THP-1-XBlue™-CD14 macrophages (InvivoGen, 8 to 13 passages), derived from human THP-1 monocytes, which stably express the gene for the alkaline phosphatase enzyme inducible by the NF-kB and AP-1 promoters.
The MTT dye (3-(4,5-dimethylthiazol-2-yl)-2,5-diphenyltetrazolium bromide) (Biotium) was used. This assay is based on the cleavage of the yellow MTT tetrazolium salt to form purple formazan crystals, produced by metabolically active cells. Formazan is solubilized with DMSO and its concentration is determined by spectrophotometry; the optical density is proportional to the number of viable cells.
To do this, the cells were seeded in 96-well plates at a density of 3×10^5 cells/mL in RPMI 1640 medium (Gibco) supplemented with 10% FBS, penicillin, streptomycin (both at a concentration of 100 μg/mL, Sigma-Aldrich), and PMA (100 ng/mL) (Sigma-Aldrich), and were cultured at 37° C., 5% CO2 for 48 h. […] The absorbance was measured in each well at 595 nm (problem) and 655 nm (background), following the manufacturer's instructions, using an iMark™ Microplate Absorbance Reader (Bio-Rad). The samples were analyzed in triplicate. The percentage of viable cells was calculated using the following formula: […]

SMILES	% kinase activity reduction [1] [%]	cytotoxic effects (cell viability) [2]	ALI score (histopathological lung damage) ([3]; i.v. 156 μg/kg (D1) and 312 μg/kg (D2), LPS 10 mg/kg intratracheal, 24 h (FIG. 6A, 6B), listed as PS1906)	neutrophils in bronchoalveolar lavage fluid (flow cytometry) ([3]; i.v. 156 μg/kg (D1) and 312 μg/kg (D2), LPS 10 mg/kg intratracheal, 24 h (FIG. 6C))	lymphocytes in bronchoalveolar lavage fluid (flow cytometry) ([3]; i.v. 156 μg/kg (D1) and 312 μg/kg (D2), LPS 10 mg/kg intratracheal, 24 h (FIG. 6D), not statistically significant)	total number of infiltrated cells in bronchoalveolar lavage fluid (flow cytometry) ([3]; i.v. D1 and D2, LPS intratracheal, 24 h)	Alk5 kinase inhibition [1]	cytotoxic effects (cell viability) [4]
Oc1ccc(-c2ccn3ccnc3c2)cc1 [Compound 12, 4-(Imidazo[1,2-a]pyridin-7-yl)phenol]	87.5	–	–	–	–	–	–	–
COc1ccc(-c2cn3ccc(-c4ccc(O)cc4)cc3n2)cc1 [Compound 16, 4-(2-(4-Methoxyphenyl)imidazo[1,2-a]pyridin-7-yl)phenol]	75.4	–	–	–	–	–	–	–
c1ccc2oc(-c3ccn4ccnc4c3)cc2c1 [Compound 26, 7-(Benzofuran-2-yl)imidazo[1,2-a]pyridine]	93.4	no cytotoxic effects	significantly different from the group of sick mice treated with LPS; also recorded: positive effect	dose-dependent anti-inflammatory effect	dose-dependent anti-inflammatory effect	dose-dependent anti-inflammatory effect	one of those that showed the greatest inhibitory effect	–
CCOC(=O)c1cc2cc(-c3cnc4ccccn34)ccc2[nH]1 [Compound 31, Ethyl 5-(imidazo[1,2-a]pyridin-3-yl)-1H-indole-2-carboxylate]	79.1	no cytotoxic effects	–	–	–	–	–	–
O.O=C(NC1CCOCC1)c1ccc(-c2cc(-c3c[nH]nc3-c3ccccn3)ccn2)cc1 [GW788388, 4-{4-[3-(pyridin-2-yl)-1H-pyrazol-4-yl]-pyridin-2-yl}-N-(tetrahydro-2H-pyran-4-yl)benzamide hydrate, reference compound]	–	lacking cytotoxic activity	–	–	–	–	approximately 25%	lacking cytotoxic activity
